According to patent US7259140B2, “Heparin-binding peptides and uses thereof” (Thomas Jefferson University, priority 2003, dated 2007):
Ends that are not written are not given here.

How the values were obtained:
[1] = tested on: anti-Factor Xa Activity of Unfractionated Heparin; test: Anti-Factor Xa assay: neutralization of unfractionated heparin in citrate or plasma in vitro; type: biochemical, human; conditions: for Unfractionated Heparin Neutralized: UFH 0.7 U/ml
Protocol: The ability of peptides such as (ARKKAAKA)3VLVLVLVL (SEQ ID NO:5) to neutralize the anti-Factor Xa activity of UFH and LMWH in vitro was tested using the Stachrom Heparin kit (Diagnostica Stago), a standard hematology laboratory assay used to measure the anti-Factor Xa activity of heparin. The assay was performed using the low molecular weight heparin enoxaparin sodium (Lovenox®, Aventis Pharmaceuticals, Inc.), unfractionated heparin (UFH), or the non-heparin glycosaminoglycan danaparoid sodium (Orgaran®, Organon Inc., West Orange, N.J.) in 0.32% citrate or in plasma anticoagulated with 0.32% citrate. Enoxaparin is commonly used clinically as a low molecular weight heparin (LMWH). Danaparoid is commonly used clinically as a non-heparin glycosaminoglycan anticoagulant. Currently, the only FDA approved drug to target UFH is protamine, which is not effective in vivo against LMWH or a non-heparin glycosaminoglycan such as danaparoid. Buffer and ATIII are added to form the heparin/ATIII complex, peptide is added, then Factor Xa, reporter dye substrate for Factor Xa activity, and stop solution, and the dye concentration is read at 405 nm. The absorbance of the dye increases with increasing Factor Xa activity, and thus is inversely proportional to the heparin (anti-Factor Xa activity) concentration. Peptides were tested in plasma obtained from three volunteers (A, B, and C). Platelet function inhibitors PG12 and theophylline were added to the blood immediately upon collection. […]

[2] = Affinity coelectrophoresis (ACE) of peptide binding to radiolabeled low Mr heparin; parameters: species or system pig; conditions: pH 7.0, mean and standard deviation of four assays, read-out: Kd (nM), affinity for low molecular weight heparin
Description: Preparation of Radiolabeled Heparin. Whole heparin from pig intestinal mucosa (Sigma) was tyramine end-labeled and radiolabeled with Na^125I (Amersham, Pharmacia Biotech, Inc., Piscataway, N.J.) to an average specific activity≅1.0×10^7 CPM/μg as described (San Antonio, J. D., et al., Biochemistry, 32:4746-4755, 1993). Radiolabeled heparin was fractionated on Sephadex G-100 (Bio-Rad Laboratories, Hercules, Calif.) and the final≅12% of material to elute was retained as the low Mr material of ≦6,000 (Jordan, R., D. Beeler, and R. Rosenberg, J. Biol. Chem., 254:2902-2913, 1979; Laurent, T. C., et al., Biochem. J., 175:691-701, 1978).
Analysis of Peptide-Heparin Interactions by Affinity Coelectrophoresis (ACE). ACE was used to study interactions between peptides and low molecular weight (low Mr) heparin (WO00/45831). In ACE, trace concentrations of radiolabeled heparin are electrophoresed through agarose lanes containing peptides at various concentrations. These analyses are used to determine the dissociation constants (Kd's). The electrophoretic patterns of radiolabeled heparin are then visualized using a phosphorimager, and the dissociation constant (Kd) corresponds to the protein concentration at which the heparin is half shifted from being fully mobile at very low protein concentrations to maximally retarded at saturating protein concentrations. The lower the Kd value, the higher the affinity.
Binding of radiolabeled heparin to peptides was studied by ACE as detailed elsewhere (San Antonio, J. D., et al., Biochemistry, 32:4746-4755, 1993). […] Briefly, peptides were dissolved in 1×ACE running buffer, 50 mM sodium 3-(N-morpholino)-2-hydroxypropanesulfonate (MOPSO, Sigma)/125 mM sodium acetate, pH 7.0, and serially diluted in running buffer at 2× concentrations. Peptides were then mixed 1:1 with 2% agarose/1% CHAPS, 3-[(3-cholamidopropyl)dimethylammonio]-1-propanesulfonate, (Boehringer Mannheim, Indianapolis, Ind.), and loaded into wells of a 1% agarose gel. Radiolabeled heparin was then loaded in a slot on the anode side of the gel, and electrophoresed through the peptide-containing wells, towards the cathode. Gels were dried and PG mobility was measured with a Phosphorimager (Molecular Dynamics, Sunnyvale, Calif.) by scanning each protein lane and determining the relative radioactivity content per 88-μm pixel through the length of the lane. Retardation coefficient (R) measurements, binding isotherm curve fittings, and apparent Kd value determinations were calculated as detailed previously (Lee, M. K., and A. D. Lander, Proc. Natl. Acad. Sci. USA, 88:2768-2772, 1991; San Antonio, J. D., et al, Biochemistry, 32:4746-4755, 1993).
Retardation coefficients (R) for the migration of low Mr 1^25I-tyramine-heparin through peptides were determined from ACE gel electrophoretograms, and are plotted against peptide concentration. Smooth curves represent non-linear least-squares fits to the equation R=R∞/{1+(Kd/[peptide])^n}.

Substance	Unfractionated Heparin Neutralized ([1]; 1 μg/ml Peptide, A Plasma) [U/ml]	Unfractionated Heparin Neutralized ([1]; 1 μg/ml Peptide, B Plasma) [U/ml]	Unfractionated Heparin Neutralized ([1]; 1 μg/ml Peptide, C Plasma) [U/ml]	Unfractionated Heparin Neutralized ([1]; 1 μg/ml Peptide, Citrate) [U/ml]	Unfractionated Heparin Neutralized ([1]; 6 μg/ml Peptide, A Plasma) [U/ml]	Unfractionated Heparin Neutralized ([1]; 6 μg/ml Peptide, B Plasma) [U/ml]	Unfractionated Heparin Neutralized ([1]; 6 μg/ml Peptide, C Plasma) [U/ml]	Unfractionated Heparin Neutralized ([1]; 6 μg/ml Peptide, Citrate) [U/ml]	Unfractionated Heparin Neutralized ([1]; 12 μg/ml Peptide, A Plasma) [U/ml]	Unfractionated Heparin Neutralized ([1]; 12 μg/ml Peptide, B Plasma) [U/ml]	Unfractionated Heparin Neutralized ([1]; 12 μg/ml Peptide, C Plasma) [U/ml]	Unfractionated Heparin Neutralized ([1]; 12 μg/ml Peptide, Citrate) [U/ml]	Kd [2] [nM]	further results
ARKKAAKAARKKAAKAARKKAAKAVLVLVLVL [(ARKKAAKA)3VLVLVLVL]	0.258 ± 0.153	0.247 ± 0.034	0.116 ± 0.032	0.072 ± 0.042	0.580 ± 0.067	0.597 ± 0.046	0.582 ± 0.035	0.651 ± 0.084	0.562 ± 0.050	0.586 ± 0.053	0.554 ± 0.049	0.505 ± 0.049	57 ± 23	effectiveness in neutralizing UFH [1]: most effective peptide; Unfractionated Heparin Neutralized ([1]; 60 μg/ml Peptide, A Plasma): 0.535 ± 0.054 U/ml; Unfractionated Heparin Neutralized ([1]; 60 μg/ml Peptide, B Plasma): 0.444 ± 0.019 U/ml; Unfractionated Heparin Neutralized ([1]; 60 μg/ml Peptide, C Plasma): 0.539 ± 0.010 U/ml; Unfractionated Heparin Neutralized ([1]; 60 μg/ml Peptide, Citrate): 0.528 ± 0.039 U/ml; Unfractionated Heparin Neutralized ([1]; 120 μg/ml Peptide, A Plasma): 0.490 ± 0.049 U/ml; Unfractionated Heparin Neutralized ([1]; 120 μg/ml Peptide, B Plasma): 0.279 ± 0.038 U/ml; Unfractionated Heparin Neutralized ([1]; 120 μg/ml Peptide, C Plasma): 0.460 ± 0.057 U/ml; Unfractionated Heparin Neutralized ([1]; 120 μg/ml Peptide, Citrate): 0.510 ± 0.117 U/ml
VLVL(ARKKAAKA)3ARKKCAKA (VLVLARKKAAKAARKKAAKAARKKAAKAARKKCAKA; Fragment)	0.240 ± 0.061	0.259 ± 0.063	0.233 ± 0.075	0.262 ± 0.101	0.574 ± 0.014	0.550 ± 0.061	0.559 ± 0.014	0.597 ± 0.034	0.618 ± 0.014	0.586 ± 0.001	0.526 ± 0.031	0.534 ± 0.056	48 ± 11	
